Assay results published in patent US4455146A, “Novel plasters” (Hisamitsu Pharmaceutical Co., Ltd., priority 1979, dated 1984).

Assay: clinical
Conditions: for Percent absorption / Fa at 4 h / Fa at 8 h: human, in vivo, topical or ocular; for Fa at 4 h / Fa at 8 h: Percent absorption
Experimental: An experiment was carried out on 7 subjects who were healthy male adults, 25-39 years old and weighing 50-63 kg each, as mentioned hereinbelow.
The plasters and adhesive tapes so attached to the skin sites were peeled 0 hour, 4 hours and 8 hours after the application and then inserted into 15 ml test tubes, respectively, after which the test tubes were each incorporated with 5 ml of acetone, shaken lightly and allowed to stand overnight at room temperature. […] After the distillation-off of an excess of the diazomethane and ether, the residue so methylated was dissolved in 1 ml of a solution of the internal reference substance in acetone and meansured for absorbability and amount absorbed by means of GC-MF under the conditions as shown in Table 10.
The absorbency and amount absorbed were calculated from the following formulae: [formula]

[1] = 1% plaster, […] 1.4 cm, 4 hr, mean ± S.E.
[2] = 1% plaster, […] 1.4 cm, 8 hr, mean ± S.E.
[3] = 3% plaster, […] 1.4 cm, 4 hr, mean ± S.E.
[4] = 3% plaster, […] 1.4 cm, 8 hr, mean ± S.E.

Row | Structure (SMILES) | Amount absorption [1] | Amount absorption [2] | Amount absorption [3] | Amount absorption [4] | Percent absorption (4 h) | Percent absorption (8 h) | Fa at 4 h | Fa at 8 h | Fa at 4 h [1] | Fa at 8 h [2] | Fa at 4 h [3] | Fa at 8 h [4]
1 | CC(C(=O)O)c1ccc(-c2ccccc2)c(F)c1 (stereo not shown) [Flurbiprofen] | 9.05 µg | 10.70 ± 1.61 µg | 41.19 µg | 49.56 ± 6.92 µg | 6.98% | 8.40 ± 1.17% | 5.53% | 6.54 ± 0.99% | – | – | – | –
2 | COc1ccc2c(c1)c(CC(=O)O)c(C)n2C(=O)c1ccc(Cl)cc1 [Indomethacin] | 2.30 µg | 4.92 ± 1.16 µg | 16.67 µg | 20.21 ± 2.13 µg | – | – | – | – | 1.27% | 2.71 ± 0.64% | 3.52% | 4.28 ± 0.45%
